Reference: US10208003B2, “Synthesis of amine substituted 4,5,6,7-tetrahydrobenzothiazole compounds” (KNOPP BIOSCIENCES LLC, priority 2011, dated 2019)

CCCN[C@@H]1CCc2nc(N)sc2C1.Cl.Cl [Form B, (R)-(+)-2-amino-4,5,6,7-tetrahydro-6-(n-propylamino)benzothiazole dihydrochloride]
polymorphic form conversion under exposure to humidity and/or moisture: converts to Form A
